Consider 60 molecules from the METLIN SMRT retention time set (Domingo-Almenara et al. 2019).

Molecules are shown by their SMILES.

A short description of this series: gradient 5% acetonitrile 3 min, to 50% in 2 min, to 85% in 15 min, held 3 min, 100 µL/min. The conditions noted are these: column: Zorbax Extend-C18 2.1 x 50 mm; eluents: water / acetonitrile, 0.1% formic acid. In a few lines: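 Retention times come from adduct peaks that were picked computationally and then checked by hand. The standards, pure and pooled in mixtures of ~100 molecules, were run on a Zorbax Extend-C18 column (2.1 × 50 mm, 1.8 μm) at 100 μL/min with water and acetonitrile, each with 0.1% formic acid. Detection was by quadrupole time-of-flight mass spectrometry in positive and negative ionization mode, with a dead volume of 40 μL and a dwell volume of 900 μL.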
`O=C(NCc1ccccc1Cl)c1ccc(=O)n(CCN2CCOCC2)c1` registered an RP-LC retention time of 609 s.
The figure for `Cc1cc(=O)n(CC(=O)Nc2ccc3c(c2)OCO3)c(-c2ccc(Cl)cc2)n1` is 1040 s; for `COC1CCC12CCN(C(=O)C1CCCC1)CC2` (stereo not given) it is 841 s; for `CC(C)c1cc(Oc2c(Br)cc(NC(=O)CC(=O)O)cc2Br)ccc1O` it is 940 s.
Regarding `CCNC(=O)N(CC(=O)N1CCc2sccc2C1COc1ccccc1)C(C)CC` (stereo not given), the RP-LC retention time came to 892 s.
The figure for `Cc1sc(NC(=O)c2ccc(S(=O)(=O)N(C)C)cc2)nc1-c1ccc2c(c1)N(C)C(=O)CO2` is 938 s; for `O=C(CN1C(=O)CCCc2cc(S(=O)(=O)N3CCCCC3)ccc21)NC1CCCCCC1` it is 942 s.
`Cc1cccc(-c2cc3n(n2)CCCN(C(=O)COc2ccc(Cl)cc2)C3)c1` gave an RP-LC retention time of 1010 s.
For `O=C(c1ccc(-c2cccs2)nc1)N1CCCC1`, the RP-LC retention time was determined as 737 s.
The molecule `COc1ccc2c(c1)C1CC(C)(O2)N(C)C(=O)C1S(=O)(=O)c1ccc(C(C)C)cc1` (stereo not given) registered an RP-LC retention time of 1160 s.
As for `CN(C(=O)C(=O)Nc1ccc2nc3n(c(=O)c2c1)CCCCC3)c1cccc(C(F)(F)F)c1`, the RP-LC retention time is 819 s.
As for `CN(CCNC(=O)NCc1noc2ccccc12)C1CCCCC1`, the figure is 558 s.
Molecule `Cc1ccc(/C=C/C(=O)N2CCC(c3cc(N)on3)CC2)cc1` had an RP-LC retention time of 751 s.
With `COc1ccc(N2CCN(C(=O)C3c4ccccc4CCN3C(=O)C3CC3)CC2)cc1` (stereo not given), the RP-LC retention time was 811 s.
The figure for `Cc1ccccc1Nc1c(-c2ccc(Cl)cc2)nc2ccc(Br)cn12` is 1090 s; for `CCOc1cccc(NC2=NS(=O)(=O)c3ccccc32)c1` it is 843 s.
The figure for `O=C(NC1CCN(c2cc(-c3ccccc3)[nH]n2)C1)c1ccccc1F` (stereo not given) is 756 s.
In the case of `CCn1c(=O)c(N2CCC(NC(=O)Nc3cc(C)ccc3C)CC2)nc2cccnc21`, the RP-LC retention time is 993 s.
Turning to `Cn1c(N2CCN(C(=O)c3ccccc3Br)CC2)cc(=O)n(C)c1=O`, the RP-LC retention time was found to be 668 s.
As for `O=C(C1CCCCC1)N1CC(c2nc(-c3ccccc3)no2)C2(CCOCC2)C1` (stereo not given), the figure is 963 s.
The molecule `Cn1nc2n(c1=O)CCN(S(=O)(=O)c1ccccc1C(F)(F)F)CC2` showed an RP-LC retention time of 675 s.
As for `O=C(NCCc1ccccc1)c1ccc2c(c1)NC(=O)C1CCCCN21` (stereo not given), the figure is 806 s.
The figure for `CC(C)n1c(=O)c(NCc2ccc(OC(F)(F)F)cc2)nc2ccncc21` is 733 s.
As for `CCCN(CCC)S(=O)(=O)c1ccc(Cl)c(OC)c1`, the RP-LC retention time stood at 1030 s.
In turn, `Cc1ccccc1CNC(=O)Cn1c(C)cc(-c2nnc(C3CCC3)o2)c1C` gave an RP-LC retention time of 902 s.
With `CCSc1nc2ccc(NS(=O)(=O)Cc3cc(F)cc(F)c3)cc2s1`, the RP-LC retention time stood at 1020 s.
The figure for `O=C(C1CCN(c2cnn(Cc3ccccc3)c(=O)c2)CC1)N1CCOCC1` is 661 s; for `CCn1cc(-c2nc(C)c(C(=O)NCc3ccccn3)s2)c2cccnc21` it is 946 s.
As for `Cc1cccn2cc(-c3cccc(S(=O)(=O)N4CCCC4)c3)nc12`, the figure is 637 s; as for `CCOc1ccccc1-n1c(C(C)N2CCN(C(=O)COc3ccc(Cl)cc3)CC2)nc2ccccc2c1=O` (stereo not given), 802 s.
With `CCOC(=O)c1nnn(-c2ccc(OCC)cc2)c1C(=O)OCC`, the RP-LC retention time stood at 1040 s.
As for `Cc1ccc(CN2CCC(c3nc(-c4cnccn4)n[nH]3)CC2)o1`, the figure is 566 s.
The figure for `Cc1c(Cl)cccc1NC(=O)NCC1(N2CCOCC2)CCOC1` (stereo not given) is 614 s; for `CN(CC(=O)N1CCN(c2ccccc2F)CC1)S(=O)(=O)c1c[nH]c(C(=O)N2CCCC2)c1` it is 752 s; for `COC(=O)c1cc(OCC(=O)Nc2ccccc2Cl)c2cc(OC)ccc2n1` it is 915 s.
`COc1cc(Cl)c(C)cc1NC(=O)c1c(C)cc(C)cc1C` came in with an RP-LC retention time of 1150 s.
The figure for `O=C(c1cnccn1)N1CCN(c2cc(-c3ccc(Cl)cc3)[nH]n2)CC1` is 722 s.
`COc1ccc(-c2nc(C)cc(C)c2CNC(=O)c2ccco2)cc1` showed an RP-LC retention time of 585 s.
For the molecule `COc1ccc2[nH]cc(CCNC(=O)c3cc(C)nc4c3c(=O)n(C)c(=O)n4C)c2c1`, the RP-LC retention time turned out to be 699 s.
Consider `COC(=O)C(C)NC(=O)N1CCN(c2nc3ccccc3n3cccc23)CC1` (stereo not given), for which the RP-LC retention time amounted to 605 s.
In turn, `CSc1cccc(N2C(=O)C3N=NN(Cc4nc(-c5ccccc5)no4)C3C2=O)c1` (stereo not given) registered an RP-LC retention time of 992 s.
`Cc1ccc2nc(C)c(NC(=O)C3c4ccccc4Oc4ccccc43)c(=O)n2c1` yielded an RP-LC retention time of 710 s.
The figure for `Cc1cc(Cl)ccc1S(=O)(=O)N1CCc2c(c(CN3CCCC3)nn2C)C1` is 679 s; for `CC(C)Cn1c(=O)c2cc(C(=O)N(C)CC(=O)N3CCCCCC3)nn2c2ccccc21` it is 891 s.
Molecule `COCC(=O)Nc1ccc2c(c1)CN(S(C)(=O)=O)CCO2` yielded an RP-LC retention time of 641 s.
As for `Cc1cnc(CCC2CCCN2C(=O)CC(F)(F)F)n1C(C)C` (stereo not given), the figure is 600 s; as for `Nc1ncnc2c1cnn2C1CCCCC1`, 672 s.
Turning to `NC(=O)C1CCN(C(=O)c2cn(-c3cccc(Cl)c3)nn2)CC1`, the RP-LC retention time came out at 646 s.
`O=C(Cc1ccc(Cl)cc1)N1CC(Cc2nncn2CC2CC2)C1` came in with an RP-LC retention time of 686 s.
The molecule `O=C(CNC(=O)c1cccc(Cl)c1)Nc1nc2ccccc2[nH]1` displayed an RP-LC retention time of 646 s.
As to `COc1ccc(OC)c(S(=O)(=O)N2C[C@@H](F)C[C@H]2C(=O)N2CCc3ccccc3C2)c1`, the RP-LC retention time stood at 829 s.
The figure for `Cc1nnc2sc(SCc3ccc(C(F)(F)F)cc3)nn2c1=O` is 801 s; for `CCCn1cnc2cc(-c3noc(COc4cccc(C)c4)n3)ccc21` it is 840 s; for `CSc1ccc(CNC(=O)C2CCCN(c3cnc4nc(C)c(C)nc4c3)C2)cc1` (stereo not given) it is 755 s.
In turn, `Fc1ccc(-c2nnc(Cc3nc(Cc4ccccc4)no3)o2)cc1` yielded an RP-LC retention time of 931 s.
With `CC(C)(C)c1cc(C(=O)Nc2ccc(C#N)cc2)nc2ccnn12`, the RP-LC retention time was determined as 1200 s.
`Cc1cc(NS(=O)(=O)c2cc3n(c2)CCCNC3=O)ccc1Cl` registered an RP-LC retention time of 711 s.
The figure for `CN1CCN(C(c2ccncc2)c2c(NC(=O)c3ccco3)sc3c2CCCC3)CC1` (stereo not given) is 636 s.
As for `CSc1ccc(-c2nc3nc(C)cc(C)n3c2Nc2c(C)cccc2C)cc1`, the figure is 808 s.
As for `CCOC(=O)CC1(NC(=O)N2CCC(c3nc4ccncc4n3C)C2)CCCCC1` (stereo not given), the figure is 553 s.
